The values below come from paper PMC5459885, “Relaxin-Family Peptide Receptors 1 and 2 Are Fully Functional in the Bovine” (Frontiers in Physiology, 2017).

“Also recorded” adds a separate entry of the source.

For one assay, the system named is bovine myometrial cells. Put plainly: cAMP production in primary bovine myometrial cells. Format: cell-based. Conditions: 20 min, 1 mM IBMX (Figure 8A). The method, then: Bovine tissues were obtained from the local slaughterhouse. Tissue collection was in accordance with German, British and European laws and provisions for ethical regulation. Cumulus-oocyte complexes (COCs) were collected and categorized exactly as in Janowski et al. ([2012]). For oocyte RNA preparation, COCs were mechanically denuded using a glass pipette followed by a 2 min trypsin incubation (1x Trypsin-EDTA solution; T4174; Sigma, Deisenhofen, Germany) to remove residual cumulus cells, then frozen at −80°C. Bovine myometrial cells were prepared from excised uteri exactly as in Heng et al. ([2008]). The isolated myometrial cells were plated at 6,000 cells/well in a 48-well plate and cultured at 37°C with 5% CO2 for 5 days before stimulation. Bovine ovaries without an obvious corpus luteum were selected for the isolation of granulosa and theca interna cells from mid-phase antral follicles (ca. 6–10 mm diameter) using standard procedures (Holtorf et al., [1989]; Bathgate et al., [1999]). Follicular fluid, including COCs and granulosa cells, was aspirated from the follicles, and collected in granulosa culture medium (DMEM/F-12 (1:1) with 1% bovine fetal serum, 1% antibiotic-antimycotic (ABAM), 2 mM L-glutamine). After manually removing the COCs, the granulosa cells were harvested by centrifugation (150 g, 10 min) and rinsed once with culture medium as above. Four to six millimeters follicles were obtained by dissection. The theca interna layer of mid-phase antral follicles was peeled off and digested with collagenase IV (1 mg/ml) in Medium 199, including trypsin inhibitor (100 μg/ml) at 38°C for 1 h. The isolated theca cells were collected and washed in Medium 199 with 1% ABAM. […]
(§1) For the transient and permanently transfected HEK 293T cells and the primary myometrial (6,000 cells/well) and theca cells (20,000 cells/well), after the initial pre-culture period (as above) medium was changed and supplemented or not with 1 mM IBMX (3-isobutyl-1-methylxanthine; Sigma) as indicated (30 min for myometrial cells, 10 min for theca cells). […] Total cAMP was extracted from the combined cells and culture medium from each well and measured by time-resolved fluorescent immunoassay (TRFIA) as described in Anand-Ivell et al. ([2007]). cAMP production by the transfected HEK 293 cells was measured directly (range1–243 pmol/ml); cAMP from primary myometrial and theca cells made use of the more sensitive TRFIA employing sample acetylation (detection range 0.04–9.72 pmol/ml).
(§2) All data were analyzed and plotted using GraphPad Prism 6. The EC50 values were calculated by non-linear regression of log (agonist) against response (three parameter). All column data were analyzed by ANOVA followed by Neuman-Keuls post-hoc test.
(In general: Changes in cAMP serve as a functional read-out for many G protein-coupled receptors.)

The subject of a further assay is bovine sperm. As to conditions: ref Miah et al., 2011; cited from earlier work. The source says:
(§3) For many years there has been a controversy surrounding the existence or not of relaxin in ruminants, including cattle, sheep, and goats (Hartung et al., [1995]). A RLN2 homologous molecule is definitely expressed at the mRNA and/or protein levels in related ungulates, such as pigs, camels, llamas, and horses (James et al., [1977]; Stewart et al., [1991]; Bravo et al., [1996]; Hombach-Klonisch et al., [2000]; ncbi database: www-ncbi-nlm-nih-gov).

The next assay relates to hRXFP1. As to the kind of experiment: cAMP production, HEK 293T cells permanently transfected with hRXFP1. Format: cell-based, human. As to conditions: hRXFP1, permanently transfected HEK 293T, 20 min stimulation, cAMP by TRFIA, three-parameter non-linear regression, pRLN converted to nM assuming MW 6 kD and purity 85%. The method, then:
(§4) For transfection, the Neon electroporation system (Invitrogen) was used: the bRXFP1 or bRXFP2 expression plasmids were mixed with HEK 293T cells in a ratio of ~0.2 μg DNA/50,000 cells/well (48-well plate), and pulsed at 1,300 V for 30 ms to transfect the DNA into the cells. Plasmids were allowed to express for 24 h with the transfected cells cultured in DMEM/F12 (1:1) at 37°C with 5% CO2. In parallel, HEK 293T cells which had been permanently transfected with human RXFP1 or human RXFP2 (Heng et al., [2008]) were plated at 50,000 cells/well in a 48-well plate, and cultured overnight in DMEM/F12 (1:1) with 10% bovine fetal serum, 2 mM L-glutamine and 1% Penicillin-Streptomycin at 37°C with 5% CO2.
(§5) For the transient and permanently transfected HEK 293T cells and the primary myometrial (6,000 cells/well) and theca cells (20,000 cells/well), after the initial pre-culture period (as above) medium was changed and supplemented or not with 1 mM IBMX (3-isobutyl-1-methylxanthine; Sigma) as indicated (30 min for myometrial cells, 10 min for theca cells). Following this pre-incubation, cells were supplemented or not with various peptides, also as indicated in the figure legends, and incubation continued for a further 20 min. Total cAMP was extracted from the combined cells and culture medium from each well and measured by time-resolved fluorescent immunoassay (TRFIA) as described in Anand-Ivell et al. ([2007]). cAMP production by the transfected HEK 293 cells was measured directly (range1–243 pmol/ml); cAMP from primary myometrial and theca cells made use of the more sensitive TRFIA employing sample acetylation (detection range 0.04–9.72 pmol/ml).
as §2

Another assay relates to hRXFP2. Put plainly: cAMP production, HEK 293T cells permanently transfected with hRXFP2. Format: cell-based, human. As to conditions: for EC50: hRXFP2, permanently transfected HEK 293T, 20 min stimulation, cAMP by TRFIA, three-parameter non-linear regression, pRLN converted to nM assuming MW 6 kD and purity 85%, its curve had not reached an asymptote at highest concentration. How it is done:
as §4, §5, §2

The next assay has as its system bovine luteal cells. Conditions: bovine luteal cells in culture; ref Musah et al., 1990; cited from earlier work.
Description: as §3

For a further assay, the system named is beef cows. Conditions: applied locally or systemically to beef cows at term; ref Musah et al., 1987; cited from earlier work.
Description: as §3

The test system of a further assay is bRXFP1. Put plainly: cAMP production, HEK293T cells transiently transfected with bRXFP1. Format: cell-based, bovine. Conditions: for EC50: bRXFP1, transient transfection HEK293T, 20 min stimulation, cAMP by TRFIA, three-parameter non-linear regression, pRLN converted to nM assuming MW 6 kD and purity 85%, bINSL3 curve had not reached an asymptote at highest concentration; for stimulation of cAMP production: bRXFP1, within the range of concentration applied (Figure 9A).
Description: (§6) Preliminary studies, prior to the publication of the bovine genome project, had employed heterologous RT-PCR primers, derived from human sequence information, together with RNA from selected bovine tissues. Initial sequence information obtained was subsequently fully confirmed by the bovine genome project, which is used here for reference. Having confirmed by RT-PCR the correct sequences for the full-length functional bRXFP1 and bRXFP2 transcripts, expression constructs were generated, whereby the signal peptides of the two receptor sequences were replaced by the signal peptide-encoding sequence from the bovine prolactin gene, together with an intermediate short FLAG sequence, exactly as used previously for the expression of the human RXFP1 and RXFP2, and other G-protein coupled receptors (Hsu et al., [2000], [2002]). The two final bovine constructs were generated from assembled multiple oligonucleotides (custom gene synthesis by GeneArt, Regensburg, Germany), their sequences confirmed, and inserted into the vector pcDNA3.1/Zeo(+) (Invitrogen) for expression.
as §4, §5, §2

In a further assay the test system is bRXFP2. As to the kind of experiment: cAMP production, HEK293T cells transiently transfected with bRXFP2. The assay is classed as cell-based, bovine. Conditions: for stimulation of cAMP production: bRXFP2 (Figure 9B, Table 1); for EC50: bRXFP2, transient transfection HEK293T, 20 min stimulation, cAMP by TRFIA, three-parameter non-linear regression, pRLN converted to nM assuming MW 6 kD and purity 85%.
Description: as §6, §4, §5, §2

Another assay deals with RXFP1. Conditions: ref Bathgate et al., 2006; cited from earlier work. The source says: The relaxin family of peptide hormones includes, besides relaxin (RLN2), also relaxin 3 (RLN3), insulin-like peptide 3 (INSL3), INSL5, and INSL6. Additionally, within higher primates and humans there is RLN1 and INSL4. […] RLN2 and INSL3 on the other hand are usually expressed in reproductive tissues of both sexes and ...

The test system of another assay is bovine theca cells. As to the kind of experiment: cAMP production in primary bovine theca cells. Conditions: 20 min, 1 mM IBMX (Figure 8B,C). Format: cell-based. The method, then:
Bovine tissues were obtained from the local slaughterhouse. Tissue collection was in accordance with German, British and European laws and provisions for ethical regulation. Cumulus-oocyte complexes (COCs) were collected and categorized exactly as in Janowski et al. ([2012]). For oocyte RNA preparation, COCs were mechanically denuded using a glass pipette followed by a 2 min trypsin incubation (1x Trypsin-EDTA solution; T4174; Sigma, Deisenhofen, Germany) to remove residual cumulus cells, then frozen at −80°C. Bovine myometrial cells were prepared from excised uteri exactly as in Heng et al. ([2008]). […]
as §1, with “pmol/ml). […]” for “pmol/ml).”

For the molecule relaxin, in the assay with bovine myometrial cells, the cAMP production entry was “significant increase in cAMP”. In addition, the sperm functional parameters entry in the assay with bovine sperm was “significantly to affect bovine sperm functional parameters”.
Usually EC50 stands for the concentration giving half of the maximal effect. In the case of porcine relaxin [pRLN], the concentration for a half-maximal effect (EC50) with hRXFP1 is 0.4 nM; in the assay on hRXFP1 (listed as porcine RLN), less than 1 nM; with hRXFP2 it was more than 12 nM; with bRXFP1 it was 10.8 nM; with bRXFP2, 10.5 nM. The cAMP production result in the assay with bovine myometrial cells is listed as “significant stimulation was observed at all concentrations applied”. Moreover, the oxytocin production result in the assay with bovine luteal cells is “significantly suppressed oxytocin production”. For the same molecule, the “softening and dilatation response” value in the assay with beef cows is “elicited a classic softening and dilatation response, thereby influencing calving period”. The “stimulation of cAMP production” value in the assay on bRXFP1 was “showed any stimulation within the range of concentration applied”; in the assay with bRXFP2 it was “could stimulate at very high concentration”.
As for relaxin 3 [hRLN3], the EC50 turned out to be 14.6 nM in the assay on hRXFP1 and 97.9 nM in the assay with bRXFP1. The “affinity at RXFP1” value with RXFP1 is “reduced affinity”. Also, the “stimulation of cAMP production” value was “unable to stimulate” in the assay on hRXFP2 (hRXFP2 (Table 1)); “showed any stimulation within the range of concentration applied” in the assay with bRXFP1; “unable to stimulate” with bRXFP2; “but not RLN3, could stimulate at very high concentration” in the assay on bRXFP2 (listed as RLN3).
Turning to recombinant human relaxin [rhRLN], the EC50 in the assay on hRXFP1 was 0.9 nM; in the assay with hRXFP1 (listed as human RLN), less than 1 nM; in the assay on hRXFP2, 53.9 nM; with bRXFP1, 48.7 nM; in the assay on bRXFP2 it was 27.3 nM. For the same molecule, the “stimulation of cAMP production” value in the assay with bRXFP1 was “showed any stimulation within the range of concentration applied”; with bRXFP2, “could stimulate at very high concentration”.

B1: bovine INSL3 (protein, UniProt O77801 22-66; O77801 27-66; O77801 107-132, looked up)
Insulin-like 3 B' chain: GPAAAQEAPEKLCGHHFVRALVRLCGGPRWSSEEDGRPVAGGDRE
Insulin-like 3 B chain: QEAPEKLCGHHFVRALVRLCGGPRWSSEEDGRPVAGGDRE
Insulin-like 3 A chain: ATAINPARHCCLSGCTRQDLLTLCPH
notes: bovine insulin-like peptide 3, cognate ligand of bovine RXFP2
As to B1, the figures for the cAMP production entry in the assay on bovine theca cells, in the assay on bovine myometrial cells (listed as INSL3) and in the assay with bovine myometrial cells (listed as bovine INSL3) were “dose-dependent increase in cAMP; also recorded: able significantly to stimulate cAMP production in a dose-dependent manner”, “significant increase in cAMP” and “significant stimulation was observed at all concentrations applied”, respectively. In addition, the EC50 was 0.6 nM in the assay on hRXFP2, 0.7 nM in the assay on bRXFP2 and less than 1 nM with bRXFP2 (listed as bovine INSL3). In the assay on bRXFP2, the “stimulation of cAMP production” value is listed as “effective at low concentrations”.

B2: human INSL3 (protein, UniProt P51460 21-55; P51460 106-131, looked up)
Insulin-like 3 B chain: LGPAPTPEMREKLCGHHFVRALVRVCGGPRWSTEA
Insulin-like 3 A chain: AAATNPARYCCLSGCTQQDLLTLCPY
notes: human insulin-like peptide 3
On to B2, for which the concentration giving a half-maximal response (EC50) with hRXFP2 was 0.7 nM; in the assay on bRXFP2, 0.6 nM.
